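Values below derive from 48-hour exposures of cells grown in 96-well plates, with endpoints linearly interpolated between the two concentrations bracketing the appropriate inhibition level. GI50: concentration for 50% inhibition of growth.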 Active and inactive are the calls of the source. No stated cut-off is given here; in the data, active = GI50 up to about 1.1 µM and inactive = higher.
Key:
Assay in all cases: NCI anticancer screen, dose series, 48 h
786-0 = tested on: 786-0
A498 = tested on: A498
A549 = tested on: A549
ACHN = tested on: ACHN
BT-549 = tested on: BT-549
CAKI-1 = tested on: CAKI-1
CCRF-CEM = tested on: CCRF-CEM
COLO 205 = tested on: COLO 205
DU-145 = tested on: DU-145
HCC 2998 = tested on: HCC 2998
HCT-116 = tested on: HCT-116
HCT-15 = tested on: HCT-15
HL-60 = tested on: HL-60
HOP-62 = tested on: HOP-62
HOP-92 = tested on: HOP-92
HT-29 = tested on: HT-29
Hs-578T = tested on: Hs-578T
IGROV-1 = tested on: IGROV-1
K562 = tested on: K562
LOX IMVI = tested on: LOX IMVI
M14 = tested on: M14
MCF7 = tested on: MCF7
MDA-MB-231 = tested on: MDA-MB-231
MDA-MB-435 = tested on: MDA-MB-435
MDA-N = tested on: MDA-N
Malme-3M = tested on: Malme-3M
NCI-H226 = tested on: NCI-H226
NCI-H23 = tested on: NCI-H23
NCI-H460 = tested on: NCI-H460
NCI-H522 = tested on: NCI-H522
NCI/ADR-RES = tested on: NCI/ADR-RES
OVCAR-3 = tested on: OVCAR-3
OVCAR-4 = tested on: OVCAR-4
OVCAR-5 = tested on: OVCAR-5
OVCAR-8 = tested on: OVCAR-8
PC-3 = tested on: PC-3
RXF 393 = tested on: RXF 393
SF-268 = tested on: SF-268
SF-295 = tested on: SF-295
SF-539 = tested on: SF-539
SK-MEL-28 = tested on: SK-MEL-28
SK-MEL-2 = tested on: SK-MEL-2
SK-MEL-5 = tested on: SK-MEL-5
SK-OV-3 = tested on: SK-OV-3
SN12C = tested on: SN12C
SNB-19 = tested on: SNB-19
SNB-75 = tested on: SNB-75
SR = tested on: SR
SW-620 = tested on: SW-620
TK-10 = tested on: TK-10
U-251 = tested on: U-251
UACC-257 = tested on: UACC-257
UACC-62 = tested on: UACC-62
UO-31 = tested on: UO-31
EKVX = tested on: EKVX
KM12 = tested on: KM12
MOLT-4 = tested on: MOLT-4
RPMI-8226 = tested on: RPMI-8226
T47D = tested on: T47D

Measured: GI50

O=c1[nH]c(Nc2nc3ccccc3[nH]2)nc2c1CCC2
> 100 µM: HCT-15
inactive: 786-0 44.7 µM | A498 > 100 µM | A549 > 100 µM | ACHN > 100 µM | BT-549 35.5 µM | CAKI-1 > 100 µM | CCRF-CEM > 100 µM | COLO 205 > 100 µM | DU-145 > 100 µM | HCC 2998 > 100 µM | HCT-116 > 100 µM | HL-60 > 100 µM | HOP-62 49.9 µM | HOP-92 30.8 µM | HT-29 > 100 µM | Hs-578T 22.6 µM | IGROV-1 > 100 µM | K562 > 100 µM | LOX IMVI > 100 µM | M14 > 100 µM | MCF7 > 100 µM | MDA-MB-231 14.8 µM | MDA-MB-435 > 100 µM | MDA-N > 100 µM | Malme-3M > 100 µM | NCI-H226 63.1 µM | NCI-H23 74.3 µM | NCI-H460 > 100 µM | NCI-H522 > 100 µM | NCI/ADR-RES > 100 µM | OVCAR-3 > 100 µM | OVCAR-4 90.2 µM | OVCAR-5 > 100 µM | OVCAR-8 42.6 µM | PC-3 > 100 µM | RXF 393 96.4 µM | SF-268 43.6 µM | SF-295 76.9 µM | SF-539 42.7 µM | SK-MEL-28 82 µM | SK-MEL-2 > 100 µM | SK-MEL-5 > 100 µM | SK-OV-3 41.8 µM | SN12C > 100 µM | SNB-19 > 100 µM | SNB-75 30 µM | SR 28 µM | SW-620 > 100 µM | TK-10 > 100 µM | U-251 64 µM | UACC-257 > 100 µM | UACC-62 > 100 µM | UO-31 > 100 µM

Cc1ccc(-n2cnc3c(N/N=C4\SCC(=O)N4c4ccccc4)ncnc32)cc1
inactive: 786-0 3.15 µM | A498 14.2 µM | A549 11.9 µM | ACHN 5.78 µM | BT-549 3.85 µM | CAKI-1 6.01 µM | COLO 205 4.98 µM | DU-145 4.37 µM | EKVX 14.8 µM | HCT-116 2.63 µM | HL-60 1.41 µM | HOP-62 15.2 µM | HOP-92 2.66 µM | HT-29 3.44 µM | Hs-578T 3.85 µM | IGROV-1 4 µM | K562 1.29 µM | LOX IMVI 2.54 µM | M14 3.66 µM | MDA-MB-231 3.3 µM | MDA-MB-435 2.02 µM | MOLT-4 1.82 µM | Malme-3M 4.39 µM | NCI-H226 4.02 µM | NCI-H23 3.37 µM | NCI-H460 2.9 µM | NCI-H522 3.52 µM | NCI/ADR-RES 8.36 µM | OVCAR-3 3.13 µM | OVCAR-4 8.75 µM | OVCAR-5 12.2 µM | OVCAR-8 3.27 µM | PC-3 3.3 µM | RXF 393 2.33 µM | SF-268 4.88 µM | SF-295 13.3 µM | SF-539 1.87 µM | SK-MEL-28 2.95 µM | SK-MEL-2 2.31 µM | SK-MEL-5 3.9 µM | SK-OV-3 14.6 µM | SN12C 2.97 µM | SNB-19 11.7 µM | SW-620 4.01 µM | T47D 3.97 µM | TK-10 3.63 µM | U-251 4.72 µM | UACC-257 3.87 µM | UACC-62 4.37 µM | UO-31 1.15 µM
active: CCRF-CEM 0.437 µM | KM12 1.07 µM | RPMI-8226 0.597 µM
2.3 µM: HCT-15

COc1cc2c(cc1OC)C(c1ccccc1CCCCl)=NCC2
inactive: 786-0 > 100 µM | A498 > 100 µM | A549 > 100 µM | ACHN > 100 µM | BT-549 38.3 µM | CAKI-1 > 100 µM | CCRF-CEM > 100 µM | COLO 205 40 µM | DU-145 > 100 µM | EKVX 90.2 µM | HCC 2998 46.9 µM | HCT-116 45.9 µM | HL-60 28.8 µM | HOP-62 > 100 µM | HOP-92 39.1 µM | HT-29 44.2 µM | Hs-578T 69 µM | IGROV-1 33.9 µM | K562 35.8 µM | KM12 55.6 µM | M14 > 100 µM | MCF7 95.5 µM | MDA-MB-231 > 100 µM | MDA-MB-435 10.8 µM | MOLT-4 80.4 µM | NCI-H226 80.4 µM | NCI-H23 42.5 µM | NCI-H460 48.6 µM | NCI-H522 20.8 µM | NCI/ADR-RES > 100 µM | OVCAR-3 > 100 µM | OVCAR-4 91.4 µM | OVCAR-5 > 100 µM | OVCAR-8 97.5 µM | PC-3 49.9 µM | RPMI-8226 14.3 µM | RXF 393 > 100 µM | SF-268 58.2 µM | SF-295 68.7 µM | SF-539 > 100 µM | SK-MEL-28 19.1 µM | SK-MEL-2 > 100 µM | SK-MEL-5 23.3 µM | SK-OV-3 > 100 µM | SN12C 93.1 µM | SNB-19 > 100 µM | SNB-75 75.3 µM | SW-620 25.6 µM | T47D 42.8 µM | TK-10 > 100 µM | U-251 8.07 µM | UACC-257 53.1 µM | UACC-62 40.9 µM | UO-31 85.9 µM
> 100 µM: HCT-15

Cc1cc2ccccc2n2c1nc1ccccc12
inactive: 786-0 > 100 µM | A498 15.2 µM | A549 > 100 µM | ACHN > 100 µM | BT-549 > 100 µM | CCRF-CEM > 100 µM | COLO 205 > 100 µM | DU-145 > 100 µM | EKVX > 100 µM | HCC 2998 > 100 µM | HCT-116 > 100 µM | HL-60 > 100 µM | HOP-62 > 100 µM | HOP-92 > 100 µM | HT-29 > 100 µM | Hs-578T > 100 µM | IGROV-1 > 100 µM | K562 > 100 µM | KM12 > 100 µM | M14 > 100 µM | MCF7 > 100 µM | MDA-MB-435 > 100 µM | MDA-N > 100 µM | MOLT-4 > 100 µM | Malme-3M > 100 µM | NCI-H226 > 100 µM | NCI-H23 > 100 µM | NCI-H460 > 100 µM | NCI/ADR-RES > 100 µM | OVCAR-3 > 100 µM | OVCAR-5 > 100 µM | OVCAR-8 > 100 µM | PC-3 > 100 µM | RPMI-8226 > 100 µM | RXF 393 > 100 µM | SF-268 > 100 µM | SF-295 > 100 µM | SF-539 > 100 µM | SK-MEL-28 > 100 µM | SK-MEL-5 > 100 µM | SK-OV-3 > 100 µM | SN12C > 100 µM | SNB-19 > 100 µM | SNB-75 > 100 µM | SR > 100 µM | SW-620 > 100 µM | T47D > 100 µM | TK-10 > 100 µM | U-251 > 100 µM | UACC-257 > 100 µM | UACC-62 > 100 µM | UO-31 > 100 µM
> 100 µM: HCT-15

CC1(C)CCC(C)(C)c2cc(C(=O)Nc3ccc(C(=O)O)cc3)ccc21
22.7 µM: HCT-15
inactive: 786-0 28.9 µM | A498 31.7 µM | A549 20 µM | ACHN 21.5 µM | BT-549 25.5 µM | CAKI-1 18.4 µM | CCRF-CEM 18.2 µM | COLO 205 18 µM | DU-145 28.4 µM | EKVX 19.5 µM | HCC 2998 19.2 µM | HCT-116 19.3 µM | HL-60 3.52 µM | HOP-62 18.7 µM | HOP-92 27.1 µM | HT-29 20.7 µM | IGROV-1 22.7 µM | K562 22.8 µM | KM12 26.5 µM | LOX IMVI 24.4 µM | M14 19.6 µM | MCF7 33.1 µM | MDA-MB-231 22.4 µM | MDA-MB-435 16.4 µM | MDA-N 22 µM | MOLT-4 24.9 µM | Malme-3M 18.7 µM | NCI-H226 > 44.8 µM | NCI-H23 17.9 µM | NCI-H460 19.9 µM | NCI-H522 26.9 µM | NCI/ADR-RES 19.9 µM | OVCAR-3 17.9 µM | OVCAR-4 20.9 µM | OVCAR-5 32.3 µM | OVCAR-8 30.5 µM | PC-3 19.9 µM | RPMI-8226 14.5 µM | RXF 393 7.62 µM | SF-268 27.3 µM | SF-295 22 µM | SF-539 13.4 µM | SK-MEL-28 40.3 µM | SK-MEL-2 22.1 µM | SK-MEL-5 23.6 µM | SK-OV-3 19.8 µM | SN12C 31.8 µM | SNB-19 26.1 µM | SNB-75 26.4 µM | SR 15 µM | SW-620 36.7 µM | T47D 15.5 µM | TK-10 26.1 µM | U-251 27 µM | UACC-257 28.2 µM | UACC-62 17.3 µM | UO-31 14.9 µM
